Reference: patent US12414979B2, “Compositions and methods for treating Sjogren's syndrome” (Interlude Biopharma Co., priority 2019, dated 2025)
No end group written: not given here.

Tested on: PAR-C10 cells
Assay: Trans-epithelial electrical resistance (TEER) assay of tight junction integrity in PAR-C10 monolayers treated with IFNγ and TNFα
Type: cell-based, rat
Details: for prevention of cytokine-induced drop in TEER: co-incubation with IFNγ and TNFα, larazotide acetate 1 mM and 5 mM, other compounds 5 mM and 10 mM, FIG. 1-3
Description: Specifically, an in vitro assay system to measure tight junction integrity was established using PAR-C10 cells, an immortalized rat acinar epithelial cell line, which mimic the biochemical and functional characteristics of primary salivary gland acinar cells. PAR-C10 cells form a monolayer of cuboidal cells, and are attached to each other with well-formed junctional complexes. PAR-C10 cells have been used to model the effect of inflammatory cytokines on tight junctions in vitro. Quissell et al., (1998) In Vitro Cell. Dev. Biol. Anim. 34: 58-67; Baker et al., Am. J. Cell Physiol. 295:C1191-1201. The cells were seeded on permeable supports in 12 well plates and cultured to form monolayers. The trans-epithelial electrical resistance (TEER) across the epithelial monolayer was measured to evaluate formation of tight junction between the cells. Three ng/ml of each pro-inflammatory cytokines, interferon gamma (IFNγ) and tumor necrosis factor alpha (TNFα) were added to the monolayers and incubated for 24 hours in order to cause tight junction disruption. Larazotide acetate (1 mM and 5 mM) or any one of 4-Aminosalicylic acid (4-ASA), 4-Amino-phenyl-acetic acid (4-APAA), and 4-Acetyl amino-phenyl-acetic acid (4-Ac APAA) (5 or 10 mM) of was added to the apical surface and the cells allowed to grow for an additional 24 hours. The compounds were dissolved in dimethyl sulfoxide and added to the culture media to obtain a final concentration of 5 mM and 10 mM each.
TEER measurements were used to determine the effect of larazotide acetate (1 or 5 mM) and other anti-inflammatory compounds (4-Aminosalicylic acid (4-ASA), 4-Amino-phenyl-acetic acid (4-APAA), and 4-Acetyl amino-phenyl-acetic acid (4-Ac APAA)) (5 or 10 mM) on tight junctions, in the presence of cytokines. To determine a therapeutic effect, the cells were pre-treated with cytokines, and the ability of larazotide acetate (1 or 5 mM) or 4-ASA, 4-APAA, and 4-Ac APAA (each at 5 or 10 mM) to reverse junctional disruption was evaluated. Wells not treated with cytokines were used as controls. p values were determined by Kruskal Wallis tests, and adjusted p values were determined by Dunns post test.

Molecule	prevention of cytokine-induced drop in TEER	prevention of cytokine induced disruption of tight junctions (TEER) (5 mM concentration, 2 independent experiments, FIG. 2)	reversal of cytokine-mediated drop in TEER (monolayers incubated with IFNγ and TNFα for 24 hours, then larazotide acetate (1 mM and 5 mM) on apical surface for additional 24 hours, FIG. 4)
CC(=O)Nc1ccc(CC(=O)O)cc1 [4-Acetyl amino-phenyl-acetic acid, (4-acetylaminophenyl)-acetic acid, reference compound]	significantly prevent a drop in TEER		
Nc1ccc(CC(=O)O)cc1 [4-Amino-phenyl-acetic acid, 4-aminophenylacetic acid]	significantly prevent a drop in TEER		
Nc1ccc(C(=O)O)c(O)c1 [4-Aminosalicylic acid, reference compound]	significantly prevent a drop in TEER		
GGVLVQPG [larazotide acetate]	significantly prevent a drop in TEER	can reproducibly prevent cytokine induced disruption of tight junctions	able to reverse the cytokine-mediated drop in TEER
